Assay results as given in publication PMC7416039 (Pharmacology Research & Perspectives, 2020).
pIC50: −log10 of the molar value. Blank lines part the entries; values can stand above or below the molecule they belong to.

What was measured:
[1] = biological target: T1, human aldehyde dehydrogenase 2 (ALDH2) (Homo sapiens, UniProt P05091); assay: Reversible inhibition of ALDH2; assay type: biochemical
T1 sequence (P05091 18-517): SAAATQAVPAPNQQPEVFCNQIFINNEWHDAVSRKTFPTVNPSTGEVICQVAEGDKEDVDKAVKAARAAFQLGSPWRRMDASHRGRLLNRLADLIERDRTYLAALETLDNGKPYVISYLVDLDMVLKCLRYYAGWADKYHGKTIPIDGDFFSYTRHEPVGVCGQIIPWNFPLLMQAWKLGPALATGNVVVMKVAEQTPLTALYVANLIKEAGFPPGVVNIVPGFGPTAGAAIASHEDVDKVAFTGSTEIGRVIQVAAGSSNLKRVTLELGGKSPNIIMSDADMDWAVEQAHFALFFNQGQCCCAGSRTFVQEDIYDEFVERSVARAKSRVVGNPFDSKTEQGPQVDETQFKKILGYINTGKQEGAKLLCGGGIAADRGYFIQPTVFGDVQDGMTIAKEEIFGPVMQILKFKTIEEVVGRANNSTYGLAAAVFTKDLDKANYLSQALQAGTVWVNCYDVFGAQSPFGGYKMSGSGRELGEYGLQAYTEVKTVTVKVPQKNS

[2] = biological target: T1, human aldehyde dehydrogenase 2 (ALDH2); assay: Time-dependent inhibition of ALDH2; assay type: biochemical; conditions: for Time-dependent inhibition of ALDH2 (residual ALDH2 catalytic activity): 10 μmol/L secnidazole
[3] = Metabolism of secnidazole in human liver microsomes; assay type: in vitro ADME; conditions: human, human liver microsomes, pH 7.4
human liver microsomes = assay: as above; assay type: in vitro ADME
[4] = Metabolism of secnidazole in human plasma in vitro; assay type: in vitro ADME
[5] = test system: cDNA‐expressed human CYP enzymes (Supersomes); assay: Metabolism of 1 μmol/L secnidazole by cDNA-expressed human CYP enzymes; assay type: in vitro ADME; conditions: 0-30 min
[6] = cited from earlier work
CYP1A2 [7] = biological target: T2, CYP1A2 (Homo sapiens, UniProt P05177); assay: Direct inhibition of CYP isoforms in HLM
T2 sequence (P05177 1-516): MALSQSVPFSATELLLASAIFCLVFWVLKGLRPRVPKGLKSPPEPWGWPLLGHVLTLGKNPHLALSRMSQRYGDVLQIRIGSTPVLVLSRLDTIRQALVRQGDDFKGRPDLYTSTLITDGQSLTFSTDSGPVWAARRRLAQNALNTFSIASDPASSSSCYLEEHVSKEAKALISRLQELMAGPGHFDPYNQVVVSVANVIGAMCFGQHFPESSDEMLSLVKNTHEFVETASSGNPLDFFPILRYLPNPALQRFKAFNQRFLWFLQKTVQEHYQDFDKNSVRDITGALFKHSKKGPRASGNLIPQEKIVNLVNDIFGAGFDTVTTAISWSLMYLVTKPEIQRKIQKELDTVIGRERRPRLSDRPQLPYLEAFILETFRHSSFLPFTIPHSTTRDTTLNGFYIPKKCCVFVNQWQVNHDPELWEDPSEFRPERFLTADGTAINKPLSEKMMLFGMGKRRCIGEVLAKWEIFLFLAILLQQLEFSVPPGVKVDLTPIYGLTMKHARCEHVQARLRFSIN

CYP2A6 [8] = biological target: T3, CYP2A6 (Homo sapiens, UniProt P11509); assay: Direct inhibition of CYP isoforms in HLM
T3 sequence (P11509 1-494): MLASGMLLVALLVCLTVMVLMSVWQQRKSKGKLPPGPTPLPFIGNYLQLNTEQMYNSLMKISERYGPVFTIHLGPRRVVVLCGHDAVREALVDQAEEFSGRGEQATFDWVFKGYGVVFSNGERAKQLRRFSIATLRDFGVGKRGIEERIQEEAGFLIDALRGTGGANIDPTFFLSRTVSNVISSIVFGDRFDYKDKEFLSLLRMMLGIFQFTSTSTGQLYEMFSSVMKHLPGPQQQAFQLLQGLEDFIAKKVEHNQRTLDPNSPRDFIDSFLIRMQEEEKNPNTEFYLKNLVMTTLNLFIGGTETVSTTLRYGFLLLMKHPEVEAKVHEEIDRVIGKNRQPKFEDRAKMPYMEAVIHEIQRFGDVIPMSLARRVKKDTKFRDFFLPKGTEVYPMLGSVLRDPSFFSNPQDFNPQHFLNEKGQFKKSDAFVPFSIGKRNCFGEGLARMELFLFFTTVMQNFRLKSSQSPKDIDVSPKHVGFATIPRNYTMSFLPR

CYP2B6 [9] = biological target: T4, CYP2B6 (Homo sapiens, UniProt P20813); assay: Direct inhibition of CYP isoforms in HLM
T4 sequence (P20813 1-491): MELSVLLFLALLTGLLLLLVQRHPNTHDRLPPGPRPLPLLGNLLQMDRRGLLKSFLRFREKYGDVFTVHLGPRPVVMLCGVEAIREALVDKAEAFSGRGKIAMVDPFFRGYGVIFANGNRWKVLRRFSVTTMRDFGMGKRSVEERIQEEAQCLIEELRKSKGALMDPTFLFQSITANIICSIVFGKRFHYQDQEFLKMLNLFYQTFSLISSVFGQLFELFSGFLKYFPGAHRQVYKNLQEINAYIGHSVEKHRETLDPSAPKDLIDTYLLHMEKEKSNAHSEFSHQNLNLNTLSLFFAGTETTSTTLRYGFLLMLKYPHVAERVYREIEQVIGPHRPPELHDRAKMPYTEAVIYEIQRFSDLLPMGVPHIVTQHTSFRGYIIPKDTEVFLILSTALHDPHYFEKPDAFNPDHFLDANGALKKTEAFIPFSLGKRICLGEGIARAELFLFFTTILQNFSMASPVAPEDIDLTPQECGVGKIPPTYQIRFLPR

CYP2C8 [10] = biological target: T5, CYP2C8 (Homo sapiens, UniProt P10632); assay: Direct inhibition of CYP isoforms in HLM
T5 sequence (P10632 1-490): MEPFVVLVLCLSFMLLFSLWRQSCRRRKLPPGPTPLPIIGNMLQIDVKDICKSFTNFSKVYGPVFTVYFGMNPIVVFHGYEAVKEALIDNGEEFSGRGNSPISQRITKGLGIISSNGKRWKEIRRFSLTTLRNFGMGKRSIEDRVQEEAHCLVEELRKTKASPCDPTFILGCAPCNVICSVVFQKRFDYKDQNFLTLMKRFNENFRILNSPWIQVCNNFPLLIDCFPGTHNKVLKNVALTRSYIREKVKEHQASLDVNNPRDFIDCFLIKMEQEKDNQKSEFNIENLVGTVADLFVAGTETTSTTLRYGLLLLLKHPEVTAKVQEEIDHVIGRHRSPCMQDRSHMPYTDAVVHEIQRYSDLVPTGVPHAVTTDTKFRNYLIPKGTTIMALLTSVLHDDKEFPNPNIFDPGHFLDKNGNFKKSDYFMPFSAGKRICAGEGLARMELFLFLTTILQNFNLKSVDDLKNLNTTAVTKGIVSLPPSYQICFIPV

CYP2C9 [11] = biological target: T6, CYP2C9 (Homo sapiens, UniProt P11712); assay: Direct inhibition of CYP isoforms in HLM
T6 sequence (P11712 whole entry, canonical isoform): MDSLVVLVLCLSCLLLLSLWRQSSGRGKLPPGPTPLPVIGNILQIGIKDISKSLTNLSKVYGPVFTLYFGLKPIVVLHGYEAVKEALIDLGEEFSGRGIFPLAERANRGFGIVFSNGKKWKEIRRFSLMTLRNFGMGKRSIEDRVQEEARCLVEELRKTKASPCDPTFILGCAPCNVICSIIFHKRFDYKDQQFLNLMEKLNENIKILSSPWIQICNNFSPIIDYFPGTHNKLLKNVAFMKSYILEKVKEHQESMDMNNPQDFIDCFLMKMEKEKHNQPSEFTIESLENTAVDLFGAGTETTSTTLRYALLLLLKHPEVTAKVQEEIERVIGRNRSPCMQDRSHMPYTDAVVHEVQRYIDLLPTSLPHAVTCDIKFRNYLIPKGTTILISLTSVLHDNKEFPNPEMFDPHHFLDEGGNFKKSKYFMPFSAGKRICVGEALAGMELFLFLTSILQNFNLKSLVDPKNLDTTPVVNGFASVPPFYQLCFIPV

CYP2C19 [12] = biological target: T7, CYP2C19 (Homo sapiens, UniProt P33261); assay: Direct inhibition of CYP isoforms in HLM
T7 sequence (P33261 whole entry, canonical isoform): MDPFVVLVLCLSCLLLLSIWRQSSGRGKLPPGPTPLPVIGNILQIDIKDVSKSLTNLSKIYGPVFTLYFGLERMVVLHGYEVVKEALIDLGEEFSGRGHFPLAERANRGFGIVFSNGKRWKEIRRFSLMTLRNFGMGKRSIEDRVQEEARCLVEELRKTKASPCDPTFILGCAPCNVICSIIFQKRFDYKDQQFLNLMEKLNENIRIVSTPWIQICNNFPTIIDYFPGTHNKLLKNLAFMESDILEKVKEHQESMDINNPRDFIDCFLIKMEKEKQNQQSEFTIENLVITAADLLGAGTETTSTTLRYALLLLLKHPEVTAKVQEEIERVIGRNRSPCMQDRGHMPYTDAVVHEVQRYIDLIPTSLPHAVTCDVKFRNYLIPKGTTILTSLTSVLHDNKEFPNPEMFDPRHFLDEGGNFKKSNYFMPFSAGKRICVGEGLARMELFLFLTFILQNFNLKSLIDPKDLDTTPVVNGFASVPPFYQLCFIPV

CYP2D6 [13] = biological target: T8, CYP2D6 (Homo sapiens, UniProt P10635); assay: Direct inhibition of CYP isoforms in HLM
T8 sequence (P10635 whole entry, canonical isoform): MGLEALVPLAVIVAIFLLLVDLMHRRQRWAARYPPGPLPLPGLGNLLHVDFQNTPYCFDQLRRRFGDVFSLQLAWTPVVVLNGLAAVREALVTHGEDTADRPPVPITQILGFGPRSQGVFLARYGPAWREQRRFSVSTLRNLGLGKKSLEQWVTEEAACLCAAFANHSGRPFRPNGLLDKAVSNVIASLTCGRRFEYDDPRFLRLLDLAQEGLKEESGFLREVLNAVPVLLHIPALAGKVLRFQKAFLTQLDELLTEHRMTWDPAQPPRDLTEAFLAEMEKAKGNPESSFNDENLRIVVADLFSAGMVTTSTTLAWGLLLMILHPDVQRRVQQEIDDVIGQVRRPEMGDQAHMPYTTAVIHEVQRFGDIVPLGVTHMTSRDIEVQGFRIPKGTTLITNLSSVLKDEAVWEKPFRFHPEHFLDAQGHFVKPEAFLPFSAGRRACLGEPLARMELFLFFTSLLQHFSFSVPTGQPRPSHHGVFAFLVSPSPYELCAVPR

CYP2E1 [14] = biological target: T9, CYP2E1 (Homo sapiens, UniProt P05181); assay: Direct inhibition of CYP isoforms in HLM
T9 sequence (P05181 whole entry, canonical isoform): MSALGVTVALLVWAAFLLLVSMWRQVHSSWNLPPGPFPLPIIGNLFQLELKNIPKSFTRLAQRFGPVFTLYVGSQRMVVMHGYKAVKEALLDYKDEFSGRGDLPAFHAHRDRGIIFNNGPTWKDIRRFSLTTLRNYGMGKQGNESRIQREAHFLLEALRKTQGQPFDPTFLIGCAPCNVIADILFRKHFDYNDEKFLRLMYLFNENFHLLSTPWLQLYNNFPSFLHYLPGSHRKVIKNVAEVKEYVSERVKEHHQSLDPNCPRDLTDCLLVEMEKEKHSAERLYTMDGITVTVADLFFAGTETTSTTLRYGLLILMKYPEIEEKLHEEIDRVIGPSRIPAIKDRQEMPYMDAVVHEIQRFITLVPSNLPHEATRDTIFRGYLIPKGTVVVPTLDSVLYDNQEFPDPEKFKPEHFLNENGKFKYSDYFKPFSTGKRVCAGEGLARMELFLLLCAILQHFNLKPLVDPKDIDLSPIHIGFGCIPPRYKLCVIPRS

CYP1A2 [15] = biological target: T2, CYP1A2; assay: Time-dependent inhibition of CYP isoforms in HLM
CYP2A6 [16] = biological target: T3, CYP2A6; assay: Time-dependent inhibition of CYP isoforms in HLM
CYP2B6 [17] = biological target: T4, CYP2B6; assay: Time-dependent inhibition of CYP isoforms in HLM
CYP2C8 [18] = biological target: T5, CYP2C8; assay: Time-dependent inhibition of CYP isoforms in HLM
CYP2C9 [19] = biological target: T6, CYP2C9; assay: Time-dependent inhibition of CYP isoforms in HLM
CYP2C19 [20] = biological target: T7, CYP2C19; assay: Time-dependent inhibition of CYP isoforms in HLM
CYP2D6 [21] = biological target: T8, CYP2D6; assay: Time-dependent inhibition of CYP isoforms in HLM
CYP2E1 [22] = biological target: T9, CYP2E1; assay: Time-dependent inhibition of CYP isoforms in HLM

% Remaining ([1]; Daidzin 0.02 μmol/L): 106% | NADH ([1]; Daidzin 0.02 μmol/L): 132 nmol/min/mg | % Remaining ([1]; Daidzin 0.05 μmol/L): 102% | NADH ([1]; Daidzin 0.05 μmol/L): 127 nmol/min/mg | % Remaining ([1]; Daidzin 0.14 μmol/L): 93% | NADH ([1]; Daidzin 0.14 μmol/L): 117 nmol/min/mg | % Remaining ([1]; Daidzin 0.41 μmol/L): 96% | NADH ([1]; Daidzin 0.41 μmol/L): 120 nmol/min/mg | % Remaining ([1]; Daidzin 1.2 μmol/L): 76% | NADH ([1]; Daidzin 1.2 μmol/L): 95 nmol/min/mg | % Remaining ([1]; Daidzin 3.7 μmol/L): 57% | NADH ([1]; Daidzin 3.7 μmol/L): 72 nmol/min/mg | % Remaining ([1]; Daidzin 11 μmol/L): 27% | NADH ([1]; Daidzin 11 μmol/L): 33 nmol/min/mg | % Remaining ([1]; Daidzin 33 μmol/L): 16% | NADH ([1]; Daidzin 33 μmol/L): 20 nmol/min/mg | % Remaining ([1]; Daidzin 100 μmol/L): 7% | NADH ([1]; Daidzin 100 μmol/L): 8 nmol/min/mg
SMILES: O=c1c(-c2ccc(O)cc2)coc2cc(O[C@@H]3O[C@H](CO)[C@@H](O)[C@H](O)[C@H]3O)ccc12 [Daidzin]

pIC50 [1]: 3.30 | % Remaining ([1]; secnidazole 0.2 μmol/L): 94% | NADH ([1]; secnidazole 0.2 μmol/L): 117 nmol/min/mg | % Remaining ([1]; secnidazole 0.5 μmol/L): 90% | NADH ([1]; secnidazole 0.5 μmol/L): 112 nmol/min/mg | % Remaining ([1]; secnidazole 1.4 μmol/L): 90% | NADH ([1]; secnidazole 1.4 μmol/L): 112 nmol/min/mg | % Remaining ([1]; secnidazole 4.1 μmol/L): 100% | NADH ([1]; secnidazole 4.1 μmol/L): 125 nmol/min/mg | % Remaining ([1]; secnidazole 12.3 μmol/L): 110% | NADH ([1]; secnidazole 12.3 μmol/L): 137 nmol/min/mg | % Remaining ([1]; secnidazole 37 μmol/L): 96% | NADH ([1]; secnidazole 37 μmol/L): 120 nmol/min/mg | % Remaining ([1]; secnidazole 111.1 μmol/L): 79% | NADH ([1]; secnidazole 111.1 μmol/L): 99 nmol/min/mg | % Remaining ([1]; secnidazole 333.3 μmol/L): 63% | NADH ([1]; secnidazole 333.3 μmol/L): 79 nmol/min/mg | % Remaining ([1]; secnidazole 1000 μmol/L): 32% | NADH ([1]; secnidazole 1000 μmol/L): 39 nmol/min/mg | Time-dependent inhibition of ALDH2 (residual ALDH2 catalytic activity) ([2]; preincubation time 0.5): 104 | Time-dependent inhibition of ALDH2 (residual ALDH2 catalytic activity) ([2]; preincubation time 1): 103 | Time-dependent inhibition of ALDH2 (residual ALDH2 catalytic activity) ([2]; preincubation time 2): 101 | Time-dependent inhibition of ALDH2 (residual ALDH2 catalytic activity) ([2]; preincubation time 3): 104 | Time-dependent inhibition of ALDH2 (residual ALDH2 catalytic activity) ([2]; preincubation time 4): 101 | Time-dependent inhibition of ALDH2 (residual ALDH2 catalytic activity) ([2]; preincubation time 8): 110 | Time-dependent inhibition of ALDH2 (residual ALDH2 catalytic activity) ([2]; preincubation time 16): 113 | Time-dependent inhibition of ALDH2 (residual ALDH2 catalytic activity) ([2]; preincubation time 24): 131 | Time-dependent inhibition of ALDH2 (in words) ([2]; preincubated with ALDH2 enzyme and NAD+ from 1 to 24 minutes, secnidazole at 10 or 100 μmol/L): little or no time‐dependent inhibition | Km [3]: > 6.4 mM | metabolism in HLMs (in words) (human liver microsomes; concentrations up to 6400 µmol/L): very low metabolism | Km (human liver microsomes; read-out: Km for M2 formation, rate linear with substrate concentration): > 6.4 mM | metabolism in human plasma in vitro [4]: no evidence of secnidazole metabolism | pIC50 (CYP1A2 [7]): < 2.30 | pIC50 (CYP2A6 [8]): < 2.30 | pIC50 (CYP2B6 [9]): < 2.30 | pIC50 (CYP2C8 [10]): < 2.30 | pIC50 (CYP2C9 [11]): < 2.30 | pIC50 (CYP2C19 [12]): 2.41 | pIC50 (CYP2D6 [13]): < 2.30 | pIC50 (CYP2E1 [14]): < 2.30 | pIC50 (CYP1A2 [15]): < 3.30 | pIC50 (CYP2A6 [16]): < 3.30 | pIC50 (CYP2B6 [17]): < 3.30 | pIC50 (CYP2C8 [18]): < 3.30 | pIC50 (CYP2C9 [19]): < 3.30 | pIC50 (CYP2C19 [20]): < 3.00 | pIC50 (CYP2D6 [21]): < 3.30 | pIC50 (CYP2E1 [22]): < 3.30
SMILES: Cc1ncc([N+](=O)[O-])n1CC(C)O (centres unmarked) [secnidazole]
metabolism in cDNA‐expressed enzymes [5]: did not demonstrate conclusive evidence of any metabolism | cumulative urinary excretion of free and conjugated secnidazole [6]: approximately 50% | direct inhibition (in words) (CYP2A6 [8]; HLM, CYP2A6): some clear concentration‐dependent inhibition at higher concentration | direct inhibition (in words) (CYP2B6 [9]; HLM, CYP2B6): some clear concentration‐dependent inhibition at higher concentration | direct inhibition (in words) (CYP2D6 [13]; HLM, CYP2D6): some clear concentration‐dependent inhibition at higher concentration
